Changes are numbered by the printed parent chain.
Columns and labels:
Format in all cases: cell-based
[1] = molecular target: T1, human A3 receptor W243F mutant fused to YFP (A3 W243F-YFP) (Homo sapiens, UniProt P0DMS8, W243F); experiment: Automated imaging of receptor internalization (granularity analysis), A3 W243F-YFP; conditions: A3 W243F-YFP cells
T1 construct: Full length A3 W243F-YFP was excised and subcloned into a native pcDNA3.1 vector; expressed in transfected cells
T1 sequence (P0DMS8 1-318 W243F): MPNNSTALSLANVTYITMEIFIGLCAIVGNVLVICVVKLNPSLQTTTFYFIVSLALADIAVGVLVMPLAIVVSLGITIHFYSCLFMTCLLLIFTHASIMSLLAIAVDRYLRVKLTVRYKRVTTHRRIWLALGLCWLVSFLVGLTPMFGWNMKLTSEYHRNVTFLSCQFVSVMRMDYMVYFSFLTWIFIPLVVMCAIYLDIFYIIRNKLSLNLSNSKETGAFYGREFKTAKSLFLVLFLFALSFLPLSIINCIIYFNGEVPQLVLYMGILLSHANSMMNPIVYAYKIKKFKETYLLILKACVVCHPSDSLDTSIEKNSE
Text: Immediately before experimentation, normal growth medium was replaced with serum-free medium. […] Medium was removed and cells were washed once in PBS. […] Images were obtained using an ImageXpress Ultra confocal plate reader (Molecular Devices, Sunnyvale, CA, USA). Four central images were obtained per well using a Plan Fluor 40x NA0.6 extra-long working distance objective. BiFC and YFP images were obtained by excitation with a 488 nm laser line with emission collected through a 525-550 nm band pass filter and H33342 images obtained by excitation with a 405 nm laser line and emission collected through a 447-460 nm band pass filter. Granularity analysis was performed on the resulting images using a granularity algorithm within MetaXpress software (Molecular Devices, Sunnyvale, CA, USA) and intensity above background was set for each individual experiment (Kilpatrick et al., [2010]). Areas of internalized receptors were identified by granularity analysis; granules were defined as having a diameter of between 7 and 15 μm and nuclei as having a diameter of between 6 and 9 μm, resulting in a measurement of the granule count per cell for each image. A basal and FSK control was included in each separate concentration-response CRE-SPAP gene transcription assay and cAMP accumulation assay to allow the responses in each cell line to be expressed as an inhibition of FSK-stimulated SPAP production. […] All data were fitted using non-linear regression in Prism 5 (GraphPad Software, San Diego, CA, USA). […] Statistical significance was determined by Student's unpaired t-test or by one-way ANOVA with Dunnett's post hoc analysis and P < 0.05 was considered statistically significant.

A3-vYc/β-arrestin2-vYnL = molecular target: T2, A3-vYc/β-arrestin2-vYnL (Homo sapiens, UniProt P0DMS8); experiment: BiFC of receptor with β-arrestin2 (automated imaging), A3-vYc; conditions: A3-vYc/β-arrestin2-vYnL cells; for Maximal BiFC (%): percentage of 10 μM NECA in the cell line
T2 construct: cDNA encoding the full length human A3 receptor; expressed in transfected cells; host or cells: CHO-K1 stably expressing β-arrestin2-vYnL, stably co-transfected with A3-vYc

A3-YFP [2] = molecular target: T3, A3-YFP (Homo sapiens, UniProt P0DMS8); experiment: ERK1/2 phosphorylation assay (AlphaScreen SureFire), A3-YFP; conditions: for Emax: read-out: Maximum response (% 10 μM NECA), pERK1/2 assay
T3 construct: cDNA encoding the full length human A3 receptor; expressed in transfected cells
T3 sequence (P0DMS8 1-318): T1 sequence (P0DMS8 1-318 W243F) with F243W
Method: Normal growth medium was replaced with serum-free medium for at least 4 h before analysis. Levels of ERK1/2 phosphorylation were measured using the AlphaScreen SureFire p-ERK assay kit (PerkinElmer). […] Medium was removed from each well and replaced with 40 μL SureFire lysis buffer. After shaking for 5 min, a 1:80:20:120 v v^−1 dilution of AlphaScreen beads : lysate : activation buffer : reaction buffer in a 5.5 μL total volume was transferred to a white opaque 384-well proxiplate in diminished light. After 2 h of incubation in the dark at room temperature, the fluorescence signal was measured with an EnVision plate reader (PerkinElmer) using standard AlphaScreen settings.
(§1) A basal and FSK control was included in each separate concentration-response CRE-SPAP gene transcription assay and cAMP accumulation assay to allow the responses in each cell line to be expressed as an inhibition of FSK-stimulated SPAP production.

A3-YFP [3] = molecular target: T3, A3-YFP; experiment: [3H]-cAMP accumulation assay, A3-YFP; conditions: for Emax: read-out: Maximum response (% inhibition of 3 μM FSK), cAMP accumulation assay, A3-YFP cells, 1 h stimulation
Method: (§2) On the day of analysis, cells were labelled with [^3H]-adenine (2 μCi·mL^−1) in a total volume of 600 μL per well for 2 h at 37°C/5% CO2 in normal growth medium. After 2 h, the [^3H]-adenine-containing medium was removed; cells washed once in serum-free medium and fresh serum-free medium, containing 10 μM rolipram, added. The required concentration of agonist was added to the appropriate well and cells incubated for 10 min at 37°C. After 10 min, 10 μM FSK was added to all wells, apart from basal wells, and cells were incubated for a further 1 h at 37°C. The assay was terminated by the addition of 50 μL concentrated HCl to each well. The levels of [^3H]-cAMP incorporated were measured by sequential Dowex and alumina chromatography and the efficiency of each column was determined by the recovery of [^14C]-cAMP as described by Donaldson et al. ([1988]).
as §1

A3 W243F-YFP = molecular target: T4, A3 W243F-YFP (Homo sapiens, UniProt P0DMS8, W243F); experiment: [3H]-cAMP accumulation assay, A3 W243F-YFP; conditions: for inhibition of FSK-stimulated [3H]-cAMP accumulation after 5 h agonist stimulation / Emax: A3 W243F-YFP cells; for inhibition of FSK-stimulated [3H]-cAMP accumulation after 5 h agonist stimulation: 5 h stimulation, compared with 1 h; for Emax: read-out: Maximum response (% inhibition of 3 μM FSK), cAMP accumulation assay, 1 h stimulation
T4 construct: Full length A3 W243F-YFP was excised and subcloned into a native pcDNA3.1 vector; expressed in transfected cells
T4 sequence (P0DMS8 1-318 W243F): T1 sequence (P0DMS8 1-318 W243F)
Method: as §2, with “[…] […]” for “The required concentration of agonist was added to the appropriate well and cells incubated for 10 min at 37°C. After 10 min, 10 μM FSK was added to all wells, apart from basal wells, and cells were incubated for a further 1 h at 37°C.”
as §1

[4] = read-out: pEC50 (cAMP accumulation assay) (converted)

T2 sequence (P0DMS8 whole entry): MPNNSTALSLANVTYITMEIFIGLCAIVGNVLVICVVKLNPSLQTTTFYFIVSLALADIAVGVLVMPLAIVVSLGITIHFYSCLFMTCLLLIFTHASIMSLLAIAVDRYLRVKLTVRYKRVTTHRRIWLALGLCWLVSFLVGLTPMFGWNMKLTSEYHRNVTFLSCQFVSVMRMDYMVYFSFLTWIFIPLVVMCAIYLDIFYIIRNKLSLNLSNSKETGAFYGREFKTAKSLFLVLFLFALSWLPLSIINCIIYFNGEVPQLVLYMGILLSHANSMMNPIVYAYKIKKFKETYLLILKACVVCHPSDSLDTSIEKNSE
T2 sequence (P32121 whole entry partner): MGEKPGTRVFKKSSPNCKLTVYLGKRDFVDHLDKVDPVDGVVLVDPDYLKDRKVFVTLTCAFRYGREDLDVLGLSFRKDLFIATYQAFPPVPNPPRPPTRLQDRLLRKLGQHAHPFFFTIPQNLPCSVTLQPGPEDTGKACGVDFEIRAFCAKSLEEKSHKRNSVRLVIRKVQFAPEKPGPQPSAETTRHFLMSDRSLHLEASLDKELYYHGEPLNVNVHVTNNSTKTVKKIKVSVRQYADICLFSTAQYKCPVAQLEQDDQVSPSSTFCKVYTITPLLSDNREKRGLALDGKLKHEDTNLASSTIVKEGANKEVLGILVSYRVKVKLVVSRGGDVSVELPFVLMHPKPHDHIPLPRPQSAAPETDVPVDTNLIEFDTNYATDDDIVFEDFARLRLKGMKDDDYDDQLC

Row | effect of pretreatment on NECA-mediated internalization ([1]; 10 μM HEMADO 30 min before NECA 45 min) | % maximal internalization vs. 10 μM NECA at 2 h (BiFC) (A3-vYc/β-arrestin2-vYnL; 10 μM, 2 h) | EC50 (A3-vYc/β-arrestin2-vYnL; 60 min, read-out: pEC50 (BiFC with β-arrestin2-vYnL) (converted)) | EC50 (A3-YFP [2]; A3-YFP cells, 5 min stimulation, read-out: pEC50 (pERK1/2 assay) (converted)) | EC50 (A3-YFP [3]; [4]) | EC50 (A3 W243F-YFP; [4]) | Structure (SMILES) | accumulation of internalized receptor after 2 h stimulation ([1]; 10 μM agonist, 2 h) | Maximal BiFC (%) (A3-vYc/β-arrestin2-vYnL; 60 min) | Emax (A3-YFP [2]) | Emax (A3-YFP [3]) | inhibition of FSK-stimulated [3H]-cAMP accumulation after 5 h agonist stimulation (A3 W243F-YFP) | Emax (A3 W243F-YFP) | Maximal internalization (%) ([1]; percentage of internalization with 10 μM NECA in the cell line)
1 | virtually abolished | 84.3 ± 8.2% | 6.46 nM | 1.91 nM | 2.4 nM | 9.55 nM | CCCCC#Cc1nc(NC)c2ncn([C@@H]3O[C@H](CO)[C@@H](O)[C@H]3O)c2n1 [HEMADO, 2-(1-hexynyl)-N-methyladenosine] | no accumulation of internalized receptor could be detected | 72.2 ± 7.1% | 120 ± 5.8% | 80 ± 5.1% | very little inhibition | 43.2 ± 4.3% | –
2 | – | – | – | – | – | – | CCNC(=O)[C@H]1O[C@@H](n2cnc3c(N)ncnc32)[C@H](O)[C@@H]1O [NECA, 5-(N-ethylcarboxamido)adenosine] | – | 100% | 100% | 77.5 ± 6.9% | reduced the maximal inhibition | 49.7 ± 2% | 100%
